Usually melting point stands for the temperature, or range, at which the solid turns liquid.

Some results are limits rather than exact numbers.

`CCCOc1nc(NC(C)=O)nc2ccc(Cl)nc12` came in with a melting point of 191 °C.
`CC1(CCOc2ccc(/C=C/C(=O)O)c(Oc3ncc(C(F)(F)F)cc3Cl)c2)OCCO1` came in with a melting point of 144 to 146 °C.
With `COCc1c(C(=O)OC)sc2nnsc12` the figure was 123 to 124 °C.
In turn, `CCOC(=O)c1cc(Br)c(OCCO)c(-c2cccc(Cl)c2)c1` had a melting point of 108 to 110 °C.
On to `N=c1[nH]c2ccccc2c2nc(-c3ccco3)nn12`, for which the melting point fell in the range of 282 to 285 °C.
The molecule `CNC(=O)CCC(=O)c1c(OC)cccc1OC` gave a melting point of 134 °C.
`FC(F)C(F)(F)Sc1nc(-c2ccccc2)c(-c2ccccc2)n1COCc1ccccc1` came in with a melting point of 70 to 70.5 °C.
On to `COC(=O)C1=C(C)NC(C)=C(C(=O)OCOC(=O)C(C)(C)C)C1c1cccc(Cl)c1Cl` (single isomer, unassigned; (+)), for which the melting point is 154 to 155 °C.
The value for `Clc1nc2ncnn2c(NC2CCCC2)c1-c1ccsc1` was 78 °C; that for `Cc1cc(-c2nc3cccnn3c2-c2ccnc(NC(=O)c3ccc(C(F)(F)F)nc3)c2)ccc1F` was 225 to 226 °C; that for `Oc1cc2c(cc1O)OCC(c1cccc(F)c1)C2` (stereo not drawn) was 121 to 123 °C.
`NC(=O)Nc1ccc(O)cc1` had a melting point of 96.3 to 98.3 °C.
With `Cc1nc(C(F)(F)F)ccc1C(=O)C1=C(S(=O)(=O)c2ccccc2)CCCC1=O` the figure was 165 to 167 °C; with `CC(C)(C)C1(c2ccc(C(=O)O)cc2)OCCO1`, 214 to 216 °C; with `COc1ccccc1N1CCN(CCn2c(=O)c3cscc3n(CCC(=O)O)c2=O)CC1`, 186 to 188 °C.
In the case of `COc1ccc2cc(N)cc(C)c2n1`, the melting point was 115 to 117 °C.
With `Nn1c(C2CC2)cc(-c2ccc(C(F)(F)F)cc2)cc1=O`, the melting point came out at 132 °C.
Consider `O=S1(=O)c2cccc3cccc(c23)N1CCCN1CCN(c2ccccc2F)CC1`, for which the melting point amounted to 112 °C.
For the molecule `CCCN(c1ccccc1)c1nc(=O)c2cccnc2s1`, the melting point is 141 to 142 °C.
In the case of `c1ccc(COC2CCN(Cc3c[nH]c4ccccc34)CC2)cc1`, the melting point was in the range of 143 to 145 °C.
The value for `COc1ccccc1Sc1ccc2c(c1)CC[C@H]1NC(=O)CC[C@]21C` was 176 to 179 °C.
With `CN(CCOc1ccc(CC2SC(=O)NC2=O)cc1)C(=O)c1ccccc1` (stereo not drawn) the figure was 139 to 142 °C.
`C#CCOc1cc(-n2c(=S)n3n(c2=S)COCC3)c(F)cc1Cl` had a melting point of 167 to 169 °C.
The molecule `O=C(CCN1CCN(c2ccccc2)CC1)c1ccc2c(c1)Cc1cc(C(=O)CCN3CCN(c4ccccc4)CC3)ccc1O2` came in with a melting point of 206 to 208 °C.
In turn, `CC(C)(C)OC(=O)NCCCCn1c(=O)c2cccc3ncc(c1=O)n32` had a melting point of 118 to 119 °C.
On to `CCNC(=NC#N)NCCSCc1csc(NC(=N)N)n1`, for which the melting point fell in the range of 181 to 182 °C.
With `CC1(COc2cccc(Br)c2)COC(C)(C)OC1` the figure was 67 to 70 °C; with `CC(C)CCOc1c(-c2ccc(S(C)(=O)=O)cc2)cnn(C(C)(C)C)c1=O`, 138 to 139 °C; with `COc1ccc(S(=O)(=O)Nc2cc(C(F)(F)F)ccc2Oc2ccccc2C(=O)O)cc1`, 139 °C.
With `NC(=O)Cc1cccc(C(=O)c2ccc(F)cc2)c1N` the figure was 184 to 186 °C.
As to `COc1ccccc1C1=Nc2ccc(C(=O)O)cc2C(=O)C1`, the melting point fell in the range of 290 to 294 °C.
Turning to `CC(=O)OCc1ccc(Sc2ccccc2C(=O)N(C)C)c([N+](=O)[O-])c1`, the melting point is 117 to 118 °C.
With `CC(C)(C)C(=O)C(Cc1ccc(Cl)cc1)n1cncn1` (stereo not drawn), the melting point is 124 °C.
The value for `COc1ccc(C=CC(=O)O)cc1-c1cc2c(cc1OCCCCCCO)C(C)(C)CCC2(C)C` was 118 to 120 °C; that for `CCCCCC[Si]1(CCCCCC)C([Si](C)(C)C)=C(c2ccccc2)C(c2ccccc2)=C1[Si](C)(C)C` was 81 °C.
The molecule `CC(=O)OC(c1ccccc1S(N)(=O)=O)C(C)F` (stereo not drawn) showed a melting point of 105 to 107 °C.
Take `COC(C)(C)OCC(C)C1CCC2C3C=CC4=CC(=O)C5OC5C4(C)C3CCC12C` (stereo not drawn): the melting point was in the range of 150 to 151 °C.
The value for `COc1ccc2c(c1)CC(=O)N2C` was 93 to 94 °C; that for `CN(C)c1nc(NCc2ccc(NC(=O)C3CCN(Cc4ccccc4)CC3)cc2)c2ccc(I)cc2n1` was 194 °C.
As to `O=[N+]([O-])c1ccccc1NC(CO)c1c(Cl)cccc1Cl` (stereo not drawn), the melting point is 128 °C.
The value for `CC(C)Cn1c(CNC(=O)OC(C)(C)C)c(-c2ccc(F)cc2)c2cc(O)ccc2c1=O` was 229 to 230 °C; that for `CC(C)(C)c1ccc(C(=O)c2ccccc2O)c(C(C)(C)C)c1O` was 126 to 128 °C; that for `CC(O)C1C(=O)N2C(C(=O)OCc3ccccc3)=C(S(=O)c3ccccc3)CC12` (stereo not drawn) was 104 to 109 °C.
Regarding `CCCc1c(OC(C(=O)OCC)c2ccc(Cl)c(Cl)c2)ccc(C(C)=O)c1O` (stereo not drawn), the melting point is 77 to 79 °C.
`CC(=O)Nc1nc(CCCN2CCN(C(c3ccccc3)c3ccccc3)CC2)cs1` gave a melting point of 213 to 215 °C.
Molecule `Cc1c(C)c(N2C(=O)c3ccccc3C2=O)c(C)c2c1OC(C)(C)C2` displayed a melting point of 166 to 168 °C.
With `O=[N+]([O-])c1cccc(Nc2nccc(-c3ccncc3)n2)c1` the figure was 282 to 284 °C; with `O=C(c1ccccc1)N(CCN1CCC(Nc2nc3ccccc3n2Cc2ccc(F)cc2)CC1)c1nccs1`, 156 °C.
`CCOC(=O)Cc1ccc(Cn2c(-c3ccc(OC4CCCC4)cc3)c(C)c3cc(OCc4ccccc4)ccc32)cc1`: the melting point was in the range of 96 to 98 °C.
`Cc1c[nH]c2c(Sc3nc4cc(Cl)ccc4[nH]3)ccc([N+](=O)[O-])c12` showed a melting point of 252 to 253 °C.
With `Cc1c(CCO)c(=O)oc2c(O)c(O)ccc12` the figure was 221 to 222 °C; with `O=C(NCCO)/C(=C/c1ccc(OC(F)(F)F)cc1)NC(=O)c1ccc(OCC2CCC2)cc1`, 168 to 170 °C.
In turn, `CC(C)c1ccc(-c2cncc(-c3cccc(C(=O)O)c3)c2)cc1` had a melting point of 155 to 156 °C.
With `COc1ccc(S(=O)(=O)N(Cc2cccnc2)c2c(C(=O)O)cnc3onc(C)c23)cc1`, the melting point was 244 to 246 °C.
As to `CCCCCCCCS(=O)(=O)NCCC(=O)O`, the melting point was 122 °C.
As for `O=C(O)CCCCOc1ccccc1Cl`, the melting point lay within 71 to 72 °C.
`COc1cc(OC)nc(Cc2ccccc2N)n1` returned a melting point of 82 to 84 °C.
With `C#CCn1nc(-c2ccc(F)cc2)c(-c2ccc(S(C)(=O)=O)cc2)cc1=O` the figure was 168 to 169 °C; with `O=C(O)CCCNC(=O)[C@@H](Cc1ccccc1)C[C@H](Cc1ccccc1)C(=O)O` (relative stereo), 127 to 129 °C.
With `N#CSCC(Cl)=C(Cl)CBr` the figure was 64.5 to 66.5 °C.
`CCNC(=O)C1(CCCc2ccccc2)c2ccccc2Oc2ccccc21` registered a melting point of 130 °C.
`C=Cn1cc(C(=O)OCC)c(=O)c2cc(F)c(Cl)nc21`: the melting point was in the range of 150 to 151 °C.
The value for `NCc1ccc(C2CCN(c3c(F)c(N)c4c(=O)c(C(=O)O)cn(C5CC5)c4c3F)C2)cc1` (stereo not drawn) was 225 to 227 °C.
The value for `CC(C)NC(=O)OC1SCN(c2ccccc2)C1=O` (stereo not drawn) was 130 to 132 °C.
`CCN(C)c1cccc(Cl)c1COc1cccn2c(Br)c(C)nc12`: the melting point was 124 to 126 °C.
Molecule `CC(C)(C)c1ccc2c(c1)C(C(=O)O)=Cc1ccccc1O2` yielded a melting point of 72 °C.
The value for `CC(C)(C)OC(=O)CN1C(=O)[C@@H](NC(=O)OC(C)(C)C)CC(=O)c2ccccc21` was 75 to 77 °C; that for `CCOC(=O)Cn1c(-c2ccccc2Cl)nc2cccnc21` was 64 to 66 °C.
In the case of `CCC(C)(C)NC(Nc1ccc2c(c1)OCO2)=C(C#N)C(=O)C(C)(C)C`, the melting point was in the range of 161 to 165 °C.
With `CCn1c2ccccc2n2c(=O)c(C(=O)NC)cnc12` the figure was 178 to 180 °C; with `Cc1nc(Cl)c([N+](=O)[O-])c(NC(C)C)n1`, 77 to 79 °C.
With `CC(C)c1oc(-c2ccccc2)c(-c2ccc(F)c(Oc3ccccc3)c2)c1C=O` the figure was 137 °C.
The value for `N#Cc1ccc2c(c1)OCC21C(=O)N(Cc2ccc3c(c2)OCCO3)c2ccccc21` (stereo not drawn) was 181 to 183 °C; that for `COc1cc([N+](=O)[O-])ccc1N1CCN(CCCNc2c(C)c(=O)n(C)c(=O)n2C)CC1` was 131 to 133 °C; that for `N#CCc1nn(-c2ccccn2)c(N)c1C#N` was 178 to 179 °C.
`CC#CN(C(C)=O)c1nc2ccccc2s1`: the melting point lay in the range of 138 to 139 °C.
Molecule `CC(Br)C(=O)c1ccc2oc(=O)[nH]c2c1` (stereo not drawn) had a melting point of 191 to 193 °C.
`O=C(O)Cc1ccn2c(=O)c(C(=O)O)ccc2c1` displayed a melting point above 250 °C.
Consider `N#Cc1cc(-c2cccc(Cl)c2)ccc1N`, for which the melting point fell in the range of 118 to 119 °C.
Take `COc1ccc2nnc3ccc(OC)cc3c2c1`: the melting point is 170 to 172 °C.
In the case of `CCOc1ccc2nc(CO)n(C)c2n1`, the melting point turned out to be 161 °C.
As to `O=C(O)c1ccc(COCc2csc3nc(C(=O)NCc4ccccc4)[nH]c(=O)c23)cc1`, the melting point lay in the range of 268 to 269 °C.
In turn, `CCN(CC)S(=O)(=O)c1cc2[nH]c(=O)c(=O)[nH]c2cc1[N+](=O)[O-]` registered a melting point above 360 °C.
The molecule `O=C(O)CC1c2ccccc2C=Cc2ccccc21` returned a melting point of 167 to 168 °C.
`Cc1c(C)c2c(c(C)c1N)C(c1ccc(Br)cc1)C(C)(C)O2` (single isomer, unassigned; (+)) gave a melting point of 143 to 144 °C.
`CCOC(=O)C1(NS(=O)(=O)c2ccc3c(Cl)cnc(NC(=N)N)c3c2)CCC1` showed a melting point of 165 to 169 °C.
With `CCOC(=O)Cc1ccc(NC(=O)C(CO)NS(=O)(=O)c2ccc(Cl)cc2)cc1` (racemic) the figure was 139 to 140 °C.
The value for `CCCC(OC)c1ccc(Cl)c2nc3n(c12)CCCN3c1ccc(Cl)cc1Cl` (stereo not drawn) was 139 to 140 °C.

The values above are taken from a melting point compilation (Tetko et al.; mined from patent text by program, amines drawn as free bases though some values may be those of a salt).
